Biological target: T1, human recombinant CRF-1 receptor (Homo sapiens, UniProt P34998)
T1 construct: expressed in transfected cells; host or cells: Chinese hamster ovary (CHO) cells, G418-selected
T1 sequence (P34998 24-415): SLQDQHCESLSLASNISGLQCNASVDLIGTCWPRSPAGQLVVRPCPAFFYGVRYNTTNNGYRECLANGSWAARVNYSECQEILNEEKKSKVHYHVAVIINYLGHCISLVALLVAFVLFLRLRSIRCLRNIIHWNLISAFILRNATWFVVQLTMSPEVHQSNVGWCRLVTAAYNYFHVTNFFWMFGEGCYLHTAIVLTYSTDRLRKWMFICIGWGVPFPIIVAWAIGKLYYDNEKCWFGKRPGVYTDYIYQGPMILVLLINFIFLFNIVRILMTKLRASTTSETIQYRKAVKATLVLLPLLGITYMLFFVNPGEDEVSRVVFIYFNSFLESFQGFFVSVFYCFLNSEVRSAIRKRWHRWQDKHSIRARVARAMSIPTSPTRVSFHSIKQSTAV
Assay: CRF-1 receptor antagonism, HTRF cAMP assay in CHO cells in the presence of 1 nM CRF
Assay type: cell-based
Settings: CHO cells expressing human recombinant CRF-1; inhibition of the effect of 1 nM CRF on cAMP; read-out: hCRF1ANTAG/IC50
Experimental: The CRF-1 or CRF-2a receptor activity of the agents of the invention has been determined in vitro in the following way:
Chinese hamster ovary (CHO) cells expressing either the human recombinant CRF-1 or CRF-2a receptors (Chen et al., Proc Natl Acad Sci USA 90, 8967-8971, 1993; Liaw et al., Endocrinology 137, 72-77, 1996) are propagated in Dulbecco's modified Eagle medium supplemented with 10% foetal calf serum, non-essential amino acids, 100 U/ml penicillin, 100 mg/l streptomycin and 1 g/l geneticin (G418). For cyclic AMP determinations the Homogeneous Time-Resolved Fluoresce (HTRF) cAMP dynamic 2 kit (Cishbio International, France) was used as per manufacturers' instructions. CHO cells, previously cryopreserved, were thawed, centrifuged for 7 mins at 1200 rpm and resuspended in serum free media, then pipetted out onto clear bottomed black tissue culture treated 384-well microtitre plates (Corning Inc, US) at 2,000 cells per well. […] The plate is read on the Pherastar (BMG, Germany). […] Values represented by a change in arbitrary fluorescence units are converted into cAMP concentrations by use of a standard curve the reagents for which are supplied with the kit. […] IC50 values of antagonists are calculated by fitting the percent inhibition of the effect of CRF by increasing concentrations of the antagonists. […]

IC50: 71 nM
SMILES: Cc1nc(C)n(-c2c(C)nn3c(-c4ccc(OC(F)F)cc4C)c(C)oc23)n1 [Example 1, 3-(4-(Difluoromethoxy)-2-methylphenyl)-7-(3,5-dimethyl-1H-1,2,4-triazol-1-yl)-2,6-dimethylpyrazolo[5,1-b]oxazole]

— patent US8163785B2, “Pyrazolo[5,1b]oxazole derivatives as CRF-1 receptor antagonists” (Novartis AG, priority 2010, dated 2012)
